Assay type in all cases: biochemical
One test has as its target T1, TYK2 (Homo sapiens, UniProt P29597).
T1 construct: JAK1 (aa 850-1154) and TYK2 (aa 871-1187) are expressed with an N-terminally fused GST-tag; GST (N); purchased Carna Biosciences, Inc; host or cells: baculovirus expression system
T1 sequence (P29597 871-1187): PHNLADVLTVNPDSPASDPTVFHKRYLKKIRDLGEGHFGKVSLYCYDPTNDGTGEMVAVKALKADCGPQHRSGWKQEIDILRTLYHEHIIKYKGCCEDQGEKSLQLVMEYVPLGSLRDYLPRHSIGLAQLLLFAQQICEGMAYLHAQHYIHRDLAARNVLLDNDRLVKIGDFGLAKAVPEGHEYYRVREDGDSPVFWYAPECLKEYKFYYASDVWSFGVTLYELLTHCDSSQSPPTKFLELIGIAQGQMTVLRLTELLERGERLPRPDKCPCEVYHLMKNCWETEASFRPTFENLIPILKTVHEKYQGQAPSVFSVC
Put plainly: TYK2 kinase assay (HTRF, inhibition of phosphorylation of a synthetic peptide). Conditions: catalytic domain aa 871-1187, GST-tag; 13 μM ATP (Km); read-out: TYK2 kinase inhibitory activity (EC50). Here is the method:
JAK1, JAK2, JAK3 and TYK2 Kinase Assays:
Human baculovirus-expressed JAK1, 2, 3 and TYK2 were purchased from Carna Biosciences, Inc. All four purified enzymes contain only the catalytic domain. JAK1 (aa 850-1154) and TYK2 (aa 871-1187) are expressed with an N-terminally fused GST-tag, and JAK2 and JAK3 with an N-terminally fused His-tag. Inhibition of phosphorylation of a synthetic peptide was measured in an HTRF-based assay using the TK substrate-Biotin from the CisbioHTRFKinEASE TK kit. First, 2 μl of TK solution (TK substrate-biotin in kinase buffer [1× enzymatic buffer from HTRFKinEASE TK kit, 1 mM DTT]) is added to a plate containing 1 μl prediluted compound (final assay concentration DMSO: 0.75%). Then, 5 μl kinase-ATP mix (prepared in kinase buffer) is added to the wells and the plates are incubated at RT for 20-30 min. For all four kinases a concentration of ATP that corresponded to the Km for ATP was used. The final concentrations of buffers, substrate, kinase and ATP were: JAK1: 50 mMHepes buffer pH 7.0, 0.01% BSA, 10 mM MgCl2, 1 mM DTT, 7 μM ATP, 50 nMSEB, 1 μM TK Substrate-Biotin and 5 ng JAK1; JAK2: 50 mM Hepes buffer pH 7.0, 0.01% BSA, 5 mM MgCl2, 1 mM DTT, 4 μM ATP, 1 μM TK Substrate-Biotin and 0.1 ng JAK2; JAK3: 50 mMHepes buffer pH 7.0, 0.01% BSA, 5 mM MgCl2, 1 mM DTT, 2 μM ATP, 1 μM TK Substrate-Biotin and 0.3 ng JAK3; TYK2: 50 mMHepes buffer pH 7.0, 0.01% BSA, 5 mM MgCl2, 1 mM DTT, 13 μM ATP, 50 nMSEB, 1 μM TK Substrate-Biotin and 0.8 ng TYK2. Thereafter, the kinase reaction is stopped by adding 4 μl detection mix (final concentrations: 50 mM Hepes buffer pH 7.0, 0.01% BSA, 0.8 M KF, 20 mM EDTA, 42 nM Streptavidin-XL665 and 1:400 STKAbCryptate) and the plates are incubated overnight in the dark. The HTRF signal is read using an Envision plate reader.
In general terms: TR-FRET usually uses a lanthanide donor and a delayed reading to cut background.

A further test addresses T2, JAK2 (Homo sapiens, UniProt O60674).
T2 construct: All four purified enzymes contain only the catalytic domain; His (N); purchased Carna Biosciences, Inc; host or cells: baculovirus expression system
The experiment in a line: JAK2 kinase assay (HTRF, inhibition of phosphorylation of a synthetic peptide). The settings on record: catalytic domain, His-tag; 4 μM ATP (Km); read-out: JAK2 kinase inhibitory activity (EC50). Summed up:
(§1)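 Baculovirus-expressed catalytic domains (GST-JAK1 aa 850-1154, GST-TYK2 aa 871-1187, His-JAK2, His-JAK3) phosphorylate 1 μM biotin-TK peptide 20-30 min at RT in 50 mM Hepes pH 7.0 with ATP at Km: JAK1 7 μM, JAK2 4 μM, JAK3 2 μM, TYK2 13 μM; 0.75% DMSO. Stopped with EDTA, HTRF read overnight.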

The target in a further test is T3, JAK1 (Homo sapiens, UniProt P23458).
T3 construct: JAK1 (aa 850-1154) and TYK2 (aa 871-1187) are expressed with an N-terminally fused GST-tag; GST (N); purchased Carna Biosciences, Inc; host or cells: baculovirus expression system
T3 sequence (P23458 850-1154): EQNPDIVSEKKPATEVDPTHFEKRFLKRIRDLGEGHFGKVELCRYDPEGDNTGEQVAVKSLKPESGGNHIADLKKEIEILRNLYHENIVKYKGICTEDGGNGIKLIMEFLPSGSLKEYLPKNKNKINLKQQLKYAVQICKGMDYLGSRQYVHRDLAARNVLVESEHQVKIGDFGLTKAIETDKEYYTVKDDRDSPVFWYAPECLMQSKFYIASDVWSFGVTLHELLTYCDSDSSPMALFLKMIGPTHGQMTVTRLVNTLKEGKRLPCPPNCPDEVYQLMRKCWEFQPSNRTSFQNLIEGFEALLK
The experiment in a line: JAK1 kinase assay (HTRF, inhibition of phosphorylation of a synthetic peptide). Conditions: catalytic domain aa 850-1154, GST-tag; 7 μM ATP (Km); read-out: JAK1 kinase inhibitory activity (EC50). In a few lines:
as §1

Another test deals with T4, JAK3 (Homo sapiens, UniProt P52333).
T4 construct: All four purified enzymes contain only the catalytic domain; His (N); purchased Carna Biosciences, Inc; host or cells: baculovirus expression system
T4 sequence (P52333 822-1111 limits assumed): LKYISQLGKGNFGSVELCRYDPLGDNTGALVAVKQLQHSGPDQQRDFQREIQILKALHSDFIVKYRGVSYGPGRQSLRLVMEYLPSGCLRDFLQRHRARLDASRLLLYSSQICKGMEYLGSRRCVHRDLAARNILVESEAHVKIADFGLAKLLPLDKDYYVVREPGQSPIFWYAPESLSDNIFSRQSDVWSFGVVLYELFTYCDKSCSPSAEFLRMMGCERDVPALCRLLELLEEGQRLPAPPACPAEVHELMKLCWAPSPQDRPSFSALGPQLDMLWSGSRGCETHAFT
Put plainly: JAK3 kinase assay (HTRF, inhibition of phosphorylation of a synthetic peptide). The settings on record: catalytic domain, His-tag; 2 μM ATP (Km); read-out: JAK3 kinase inhibitory activity (EC50). In a few lines:
as §1

We go through 17 compounds from US9586961B2, “Homopiperazine derivatives as protein tyrosine kinase inhibitors and pharmaceutical use thereof” (LEO PHARMA A/S, priority 2010, dated 2017).

Where only a bound is given, the exact number is not on record here.

T2 sequence (O60674 849-1124 limits assumed): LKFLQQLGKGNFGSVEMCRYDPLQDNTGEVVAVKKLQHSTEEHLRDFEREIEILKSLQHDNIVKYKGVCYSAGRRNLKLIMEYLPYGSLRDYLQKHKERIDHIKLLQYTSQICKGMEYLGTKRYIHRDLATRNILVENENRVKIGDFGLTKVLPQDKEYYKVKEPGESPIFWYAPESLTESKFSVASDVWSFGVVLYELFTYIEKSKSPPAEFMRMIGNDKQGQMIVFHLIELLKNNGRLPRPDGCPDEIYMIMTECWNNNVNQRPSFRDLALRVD

On to `N#CCc1ccc(C(=O)N2CCN(c3ncnc4[nH]ccc34)CC3(CC3)C2)cc1` [Example 12, {4-[8-(7H-pyrrolo[2,3-d]pyrimidin-4-yl)-5,8-diazaspiro[2.6]nonane-5-carbonyl]phenyl}acetonitrile], for which the 50% effective concentration (EC50) is over 1000 nM at TYK2, 100 to 1000 nM on JAK2, 100 to 1000 nM on JAK1 and over 1000 nM on JAK3.

Take `N#Cc1ccc(C(F)(F)C(=O)N2CCN(c3ncnc4[nH]ccc34)CC3(CC3)C2)cc1` [Example 13, 4-[1,1-difluoro-2-oxo-2-[5-(7H-pyrrolo[2,3-d]pyrimidin-4-yl)-5,8-diazaspiro[2.6]nonan-8-yl]ethyl]benzonitrile]: the EC50 on TYK2 was over 1000 nM; at JAK2, under 100 nM; at JAK1 it was 100 to 1000 nM; at JAK3, over 1000 nM.

In the case of `N#CCOc1cccc(C(=O)N2CCN(c3ncnc4[nH]ccc34)CC3(CC3)C2)c1` [Example 14, 2-[3-[5-(7H-pyrrolo[2,3-d]pyrimidin-4-yl)-5,8-diazaspiro[2.6]nonane-8-carbonyl]phenoxy]acetonitrile], the EC50 on TYK2 is over 1000 nM; at JAK2, 100 to 1000 nM; on JAK1, 100 to 1000 nM; on JAK3 it was over 1000 nM.

In the case of `N#CCOc1ccc(C(=O)N2CCN(c3ncnc4[nH]ccc34)CC3(CC3)C2)cc1` [Example 15, 2-[4-[5-(7H-pyrrolo[2,3-d]pyrimidin-4-yl)-5,8-diazaspiro[2.6]nonane-8-carbonyl]phenoxy]acetonitrile], the EC50 is over 1000 nM on TYK2, 100 to 1000 nM on JAK2, 100 to 1000 nM at JAK1 and 100 to 1000 nM at JAK3.

For the compound `N#CCOc1ccc(CC(=O)N2CCN(c3ncnc4[nH]ccc34)CC3(CC3)C2)cc1` [Example 16, 2-[4-[2-oxo-2-[5-(7H-pyrrolo[2,3-d]pyrimidin-4-yl)-5,8-diazaspiro[2.6]nonan-8-yl]ethyl]phenoxy]acetonitrile], the EC50 on TYK2 is over 1000 nM; on JAK2, under 100 nM; at JAK1, under 100 nM; on JAK3, 100 to 1000 nM.

Take `N#CCOc1cccc(CC(=O)N2CCN(c3ncnc4[nH]ccc34)CC3(CC3)C2)c1` [Example 17, 2-[3-[2-oxo-2-[5-(7H-pyrrolo[2,3-d]pyrimidin-4-yl)-5,8-diazaspiro[2.6]nonan-8-yl]ethyl]phenoxy]acetonitrile]: the EC50 was over 1000 nM at TYK2, 100 to 1000 nM on JAK2, 100 to 1000 nM on JAK1 and 100 to 1000 nM on JAK3.

As for `O=C(c1cc2ccccc2s1)N1CCN(c2ncnc3[nH]ccc23)CC2(CC2)C1` [Example 18, benzothiophen-2-yl-[5-(7H-pyrrolo[2,3-d]pyrimidin-4-yl)-5,8-diazaspiro[2.6]nonan-8-yl]methanone], the EC50 at TYK2 was over 1000 nM; on JAK2, 100 to 1000 nM; on JAK1 it was under 100 nM; on JAK3 it was 100 to 1000 nM.

As to `N#Cc1csc(C(=O)N2CCN(c3ncnc4[nH]ccc34)CC3(CC3)C2)c1` [Example 19, 5-[5-(7H-pyrrolo[2,3-d]pyrimidin-4-yl)-5,8-diazaspiro[2.6]nonane-8-carbonyl]thiophene-3-carbonitrile], the concentration giving a half-maximal response (EC50) is over 1000 nM on TYK2, under 100 nM at JAK2, 100 to 1000 nM at JAK1 and 100 to 1000 nM at JAK3.

Turning to `NS(=O)(=O)c1ccc(CC(=O)N2CCN(c3ncnc4[nH]ccc34)CC3(CC3)C2)cc1` [Example 20, 4-[2-oxo-2-[5-(7H-pyrrolo[2,3-d]pyrimidin-4-yl)-5,8-diazaspiro[2.6]nonan-8-yl]ethyl]benzenesulfonamide], the half-maximal effective concentration (EC50) on TYK2 is 100 to 1000 nM; at JAK2, under 100 nM; at JAK1, under 100 nM; on JAK3, under 100 nM.

Regarding `O=C(c1cc2c(s1)CCC2)N1CCN(c2ncnc3[nH]ccc23)CC2(CC2)C1` [Example 21, 5,6-dihydro-4H-cyclopenta[b]thiophen-2-yl-[5-(7H-pyrrolo[2,3-d]pyrimidin-4-yl)-5,8-diazaspiro[2.6]nonan-8-yl]methanone], the EC50 on TYK2 is over 1000 nM; on JAK2, 100 to 1000 nM; on JAK1, 100 to 1000 nM; on JAK3, 100 to 1000 nM.

Consider `COc1csc(C(=O)N2CCN(c3ncnc4[nH]ccc34)CC3(CC3)C2)c1` [Example 22, (4-methoxy-2-thienyl)-[5-(7H-pyrrolo[2,3-d]pyrimidin-4-yl)-5,8-diazaspiro[2.6]nonan-8-yl]methanone], for which the EC50 was over 1000 nM on TYK2, 100 to 1000 nM on JAK2, under 100 nM on JAK1 and 100 to 1000 nM at JAK3.

For the compound `CNS(=O)(=O)c1csc(C(=O)N2CCN(c3ncnc4[nH]ccc34)CC3(CC3)C2)c1C` [Example 23, N,4-dimethyl-5-[5-(7H-pyrrolo[2,3-d]pyrimidin-4-yl)-5,8-diazaspiro[2.6]nonane-8-carbonyl]thiophene-3-sulfonamide], the EC50 at TYK2 was over 1000 nM; at JAK2, under 100 nM; on JAK1, 100 to 1000 nM; on JAK3, 100 to 1000 nM.

As for `Cc1sc(C(=O)N2CCN(c3ncnc4[nH]ccc34)CC3(CC3)C2)cc1S(N)(=O)=O` [Example 24, 2-methyl-5-[5-(7H-pyrrolo[2,3-d]pyrimidin-4-yl)-5,8-diazaspiro[2.6]nonane-8-carbonyl]thiophene-3-sulfonamide], the EC50 on TYK2 is 100 to 1000 nM; at JAK2 it was under 100 nM; on JAK1, under 100 nM; on JAK3, under 100 nM.

Regarding `Cc1c(S(N)(=O)=O)csc1C(=O)N1CCN(c2ncnc3[nH]ccc23)CC2(CC2)C1` [Example 25, 4-methyl-5-[5-(7H-pyrrolo[2,3-d]pyrimidin-4-yl)-5,8-diazaspiro[2.6]nonane-8-carbonyl]thiophene-3-sulfonamide], the EC50 at TYK2 is over 1000 nM; at JAK2, under 100 nM; on JAK1, 100 to 1000 nM; on JAK3 it was 100 to 1000 nM.

`CNS(=O)(=O)c1cc(C(=O)N2CCN(c3ncnc4[nH]ccc34)CC3(CC3)C2)sc1C` [Example 26, N,2-dimethyl-5-[5-(7H-pyrrolo[2,3-d]pyrimidin-4-yl)-5,8-diazaspiro[2.6]nonane-8-carbonyl]thiophene-3-sulfonamide]: the EC50 is over 1000 nM on TYK2, under 100 nM on JAK2, 100 to 1000 nM at JAK1 and 100 to 1000 nM at JAK3.

With `NS(=O)(=O)c1csc(C(=O)N2CCN(c3ncnc4[nH]ccc34)CC3(CC3)C2)c1` [Example 27, 5-[5-(7H-pyrrolo[2,3-d]pyrimidin-4-yl)-5,8-diazaspiro[2.6]nonane-8-carbonyl]thiophene-3-sulfonamide], the EC50 on TYK2 is over 1000 nM; on JAK2, under 100 nM; at JAK1, 100 to 1000 nM; at JAK3 it was under 100 nM.

`CNS(=O)(=O)c1csc(C(=O)N2CCN(c3ncnc4[nH]ccc34)CC3(CC3)C2)c1` [Example 28, N-methyl-5-[5-(7H-pyrrolo[2,3-d]pyrimidin-4-yl)-5,8-diazaspiro[2.6]nonane-8-carbonyl]thiophene-3-sulfonamide]: the EC50 on TYK2 is over 1000 nM; at JAK2 it was under 100 nM; on JAK1 it was 100 to 1000 nM; on JAK3, 100 to 1000 nM.

The EC50 is the concentration giving half of the maximal effect.
